Assay results published in ChEMBL document CHEMBL4431347, “Synthesis and biological evaluation of novel (E)-N'-(2,3-dihydro-1H-inden-1-ylidene) benzohydrazides as potent LSD1 inhibitors” (Bioorg Med Chem Lett, 2016).

Columns and labels:
A549 [1] = assay: Antiproliferative activity against human A549 cells over-expressing LSD1 assessed as reduction in cell viability measured after 72 hrs by MTT assay; details: A549, 72 h
NCI-H1299 [2] = assay: Antiproliferative activity against human NCI-H1299 cells over-expressing LSD1 assessed as reduction in cell viability measured after 72 hrs by MTT assay; details: NCI-H1299, 72 h
SMMC-7721 [3] = assay: Antiproliferative activity against human SMMC7721 over-expressing LSD1 cells assessed as reduction in cell viability measured after 72 hrs by MTT assay; details: SMMC-7721, 72 h
A2780 [4] = assay: Antiproliferative activity against human A2780 cells over-expressing LSD1 assessed as reduction in cell viability measured after 72 hrs by MTT assay; details: A2780, 72 h
HCT-116 [5] = assay: Antiproliferative activity against human HCT116 cells over-expressing LSD1 assessed as reduction in cell viability measured after 72 hrs by MTT assay; details: HCT-116, 72 h
MCF7 [6] = assay: Antiproliferative activity against human MCF7 cells over-expressing LSD1 assessed as reduction in cell viability measured after 72 hrs by MTT assay; details: MCF7, 72 h
MDA-MB-231 [7] = assay: Antiproliferative activity against human MDA-MB-231 cells over-expressing LSD1 assessed as reduction in cell viability measured after 72 hrs by MTT assay; details: MDA-MB-231, 72 h
PC-3 [8] = assay: Antiproliferative activity against human PC3 cells over-expressing LSD1 assessed as reduction in cell viability measured after 72 hrs by MTT assay; details: PC-3, 72 h
DU-145 [9] = assay: Antiproliferative activity against human DU145 cells over-expressing LSD1 assessed as reduction in cell viability measured after 72 hrs by MTT assay; details: DU-145, 72 h
A549 [10] = assay: Antiproliferative activity against human A549 cells over-expressing LSD1 assessed as reduction in cell viability measured after 96 hrs by MTT assay; details: A549, 96 h
NCI-H1299 [11] = assay: Antiproliferative activity against human NCI-H1299 cells over-expressing LSD1 assessed as reduction in cell viability measured after 96 hrs by MTT assay; details: NCI-H1299, 96 h
SMMC-7721 [12] = assay: Antiproliferative activity against human SMMC7721 cells over-expressing LSD1 assessed as reduction in cell viability measured after 96 hrs by MTT assay; details: SMMC-7721, 96 h
A2780 [13] = assay: Antiproliferative activity against human A2780 cells over-expressing LSD1 assessed as reduction in cell viability measured after 96 hrs by MTT assay; details: A2780, 96 h
HCT-116 [14] = assay: Antiproliferative activity against human HCT116 cells over-expressing LSD1 assessed as reduction in cell viability measured after 96 hrs by MTT assay; details: HCT-116, 96 h
MCF7 [15] = assay: Antiproliferative activity against human MCF7 cells over-expressing LSD1 assessed as reduction in cell viability measured after 96 hrs by MTT assay; details: MCF7, 96 h
MDA-MB-231 [16] = assay: Antiproliferative activity against human MDA-MB-231 cells over-expressing LSD1 assessed as reduction in cell viability measured after 96 hrs by MTT assay; details: MDA-MB-231, 96 h
PC-3 [17] = assay: Antiproliferative activity against human PC3 cells over-expressing LSD1 assessed as reduction in cell viability measured after 96 hrs by MTT assay; details: PC-3, 96 h
DU-145 [18] = assay: Antiproliferative activity against human DU145 cells over-expressing LSD1 assessed as reduction in cell viability measured after 96 hrs by MTT assay; details: DU-145, 96 h

| Structure (SMILES) | IC50 (A549 [1]) | IC50 (NCI-H1299 [2]) | IC50 (SMMC-7721 [3]) | IC50 (A2780 [4]) | IC50 (HCT-116 [5]) | IC50 (MCF7 [6]) | IC50 (MDA-MB-231 [7]) | IC50 (PC-3 [8]) | IC50 (DU-145 [9]) | IC50 (A549 [10]) | IC50 (NCI-H1299 [11]) | IC50 (SMMC-7721 [12]) | IC50 (A2780 [13]) | IC50 (HCT-116 [14]) | IC50 (MCF7 [15]) | IC50 (MDA-MB-231 [16]) | IC50 (PC-3 [17]) | IC50 (DU-145 [18]) |
| --- | --- | --- | --- | --- | --- | --- | --- | --- | --- | --- | --- | --- | --- | --- | --- | --- | --- | --- |
| C/C(=N\NC(=O)c1cccc(S(=O)(=O)N2CCOCC2)c1)c1cc(Cl)ccc1O | 2690 nM | 3010 nM | 15800 nM | 2140 nM | 650 nM | 440 nM | 1400 nM | 19700 nM | 13100 nM | 830 nM | 1730 nM | 5360 nM | 770 nM | 330 nM | 190 nM | 750 nM | 4450 nM | 620 nM |
| O=C(N/N=C1\CCc2cccc(O)c21)c1cccc(S(=O)(=O)N2CCOCC2)c1 | 920 nM | 2010 nM | 2960 nM | 810 nM | 360 nM | 300 nM | 680 nM | 3110 nM | 2490 nM | 390 nM | 790 nM | 1340 nM | 340 nM | 250 nM | 220 nM | 410 nM | 1000 nM | 220 nM |
| O=C(N/N=C1\CCc2c(Cl)ccc(O)c21)c1cccc(S(=O)(=O)N2CCOCC2)c1 | 780 nM | 3330 nM | 3160 nM | 1130 nM | 480 nM | 410 nM | 710 nM | 2450 nM | 2950 nM | 400 nM | 980 nM | 1220 nM | 790 nM | 270 nM | 300 nM | 460 nM | 760 nM | 180 nM |
